Results from PMC5556071, “ATR inhibition facilitates targeting of leukemia dependence on convergent nucleotide biosynthetic pathways” (Nature Communications, 2017).

What was measured:
[1] = system: CEM T-ALL cells; assay: ssDNA (F7-26) and pH2A.X flow cytometry; assay type: cell-based, human
Protocol: Treated CEM T-ALL cells were fixed with ice-cold methanol:PBS (6:1 v/v). Staining with F7-26 ssDNA monoclonal antibody (mouse) was performed according to manufacturer’s instructions (EMD Millipore, #MAB3299) followed by secondary antibody IgM-PE. Subsequently, cells were stained with the phospho-Histone H2A.X (pS139 H2A.X) specific antibody conjugated to FITC (EMD Millipore, #05-636) and DAPI, and then analyzed by flow cytometry (a detailed description is available in the Supplementary Information).
(525→383). The peak areas for each drug (precursor→fragment ion transitions) at predetermined retention times were recorded using the software supplied by the instrument manufacturer (Agilent MassHunter).
Cell cycle histograms. Cells were plated at a density of 0.5 x 10^6 cells/mL in respective media or drug treated media. […]
Cell cycle kinetics and cell cycle progression by intracellular detection of DNA-incorporated 5-ethynyl-2-deoxyuridine (EdU). […] The total DNA content was assessed by staining the samples with FxCycle-Violet (Invitrogen, #F10347) at 1 µg/mL final concentration in PBS containing 2% FBS. […] Total DNA content was assessed by staining with FxCycle-Violet (Invitrogen) at 1 µg/mL final concentration in PBS containing 2% FBS. pH2A.X staining. […]
Measurement of ssDNA levels using the F7-26 monoclonal antibody. […] Cells were washed with PBS and stained with 100 µL of fluorescence-conjugated […]

[2] = system: p185BCR-ABL Arf–/– pre-B-ALL; assay: Systemic primary pre-B-ALL leukemia model, survival, bioluminescence, body weight; assay type: in vivo
[3] = system: RRM2 pT33; assay: Phosphoproteomic nLC-MS/MS analysis of RRM2 phosphorylation; assay type: cell-based, human; parameters: key to RNR pT33: ↓: partial decrease/inhibition; ↓↓↓: nearly complete inhibition; ↑: increase; ⟷: no change
Protocol: against both the Uniprot human FASTA database and a decoy database of the Uniprot human database which read from C-terminus to N-terminus; Percolator was used to filter the data at 1% FDR at both the peptide and […]
Phosphoproteomic analyses. CCRF-CEM cells were prepared same as the asynchronous CEM cells total protein digests above, except that a total of 7.5 mg total protein from 1 x 10^8 cells was collected per treatment condition for phosphoproteomic analysis. tC18 Sep-Pak cartridges (Waters) were used for peptide desalting and Pierce Quantitative Colorimetric Peptide Assay was performed prior to phosphopeptide enrichment.
Hydrophilic interaction chromatography (HILIC) and immobilized metal affinity chromatography (IMAC) were performed same as previously described4. Data dependent nLC-MS/MS was performed on Thermo QExactive Plus same as above. Raw data was searched against Uniprot human database using MaxQuant 1.5.3.30 with the following search parameters: trypsin cleavage allowing up to 2 missed cleavages, fixed modification of carbamidomethyl to cysteines, variable modifications of acetylation to protein N-terminus, methionine oxidation, and phosphorylation to serine, threonine, and tyrosine, 10 ppm and 20 mmu mass errors for full MS and MS/MS, respectively, score of 40 or greater for modified peptides, and 1% false-discovery rate on peptide and protein identifications. Identified phosphopeptides were manually quantified by area-based extracted ion chromatograms of the monoisotopic peak. […]
Plasma samples were processed the same way as the calibration standard samples. 20 μL samples were injected onto a reverse phase column, (Thermo Scientific Hypersil GOLD column 3.0 µm; 2.1 x 100 mm) equilibrated in water/formic acid, 100/0.1, and eluted (200 μL/min) with an increasing concentration of solvent […]
The effluent from the column was directed to the Agilent Jet Stream ion source connected to the triple quadrupole mass spectrometer (Agilent 6460) operating in the multiple reaction monitoring (MRM) mode using previously optimized settings. The following drug precursor→fragment ion transitions were used: 3-AP

[4] = system: ATR; parameters: method as in earlier work; conditions: ref #35, Fokas et al., 2014; cited from earlier work
[5] = asynchronous CEM, VE-822 1 µM, 12 h

| Structure (SMILES) | increase of the percentage of ssDNA+ cells ([1]; 0.5 h after treatment) | increase of the percentage of ssDNA+ cells ([1]; 4 h time point) | efficacy in vivo of VE-822 alone ([2]; VE-822 40 mg kg–1 once daily) | time by which all treated mice died of leukemia ([2]; after inoculation, VE-822 40 mg kg–1 once daily) | Median survival ([2]; after treatment initiation, 40 mg kg–1 day–1 VE-822, n = 6) | decrease in the phosphorylation of RRM2 on threonine 33 (pT33) [3, 5] | mean fold change of RRM2 pT33 normalized to total RRM2 [3, 5] | observed fold decrease for pT33 (phosphoproteomic nLC-MS/MS) [3, 5] | RNR pT33 ([3]; summary Fig. 2g, CEM cells) | cellular selectivity for ATR compared to other members of the PIKK family (including ATM and DNA-PK) [4] |
| --- | --- | --- | --- | --- | --- | --- | --- | --- | --- | --- |
| NC(=S)N/N=C/c1ncccc1N [3-AP] | more than two-fold | greater than three-fold |  |  |  |  |  |  |  |  |
| CNCc1ccc(-c2cc(-c3nc(-c4ccc(S(=O)(=O)C(C)C)cc4)cnc3N)on2)cc1 [VE-822] |  |  | only marginally efficacious | ≤ 38 days | 32.5 days | ~ 50% | 0.43 ± 0.1 fold | 0.34 fold | ↓ | > 100 fold |
